Earlier results, collected in patent US6979682B2, “Platelet-activating factor antagonist inhibition of angiogenesis and tumor growth induced by basic fibroblast” (Board of Supervisors of Louisiana State University and …, priority 2001, dated 2005).
“Also recorded” adds a separate entry of the source.

Assays:
[1] = test system: PAF binding sites (microsomal intracellular membranes; synaptosomal plasma membrane); conditions: Marcheselli et al., 1990; cited from earlier work
[2] = test system: angiogenesis stimulated by HGF, TNF-α or bFGF; conditions: cited from earlier work

Structure (SMILES) | binding to the intracellular PAF binding sites [1] | angiogenesis stimulated by bFGF ([2]; Camussi et al., 1997, Montrucchio et al.) | angiogenesis stimulated by HGF ([2]; Camussi et al., 1997) | angiogenesis stimulated by TNF-α ([2]; Montrucchio et al.)
CCCCCCCCCCCCCCCCCCNC(=O)OCC(COP(=O)([O-])OCC[n+]1ccsc1)OC (stereo not shown) [CV-3988, reference compound] | known to bind to the intracellular PAF binding sites | – | – | –
Cc1nnc2n1-c1sc3c(c1C(c1ccccc1Cl)=NC2)CC(C(=O)N1CCOCC1)C3 (stereo not shown) [WEB 2170] | – | did not inhibit; also recorded: not inhibited | inhibited | inhibited
